Experimental data published in patent US6407124B1, “Carbon substituted aminothiazole inhibitors of cyclin dependent kinases” (Bristol-Myers Squibb Company, priority 1998, dated 2002).

melting point [°C]	SMILES
239 to 240	CCOC(=O)/C=C/c1cnc(NC(C)=O)s1 [Example 1, Ethyl 3-((E)-2-acetamido-thiazol-5-yl)-acrylate]
275	CC(=O)Nc1ncc(/C=C/c2ncc(C(C)(C)C)o2)s1 [Example 2, N-[(E)-5-(2-(5-t-butyl-oxazol-2-yl)-vinyl)-thiazol-2-yl]-acetamide]
